In patent US6673549B1, “Genes expressed in C3A liver cell cultures treated with steroids” (Incyte Corporation, priority 2000, dated 2004):

Key:
[1] = test system: human C3A liver cells; assay: Microarray differential gene expression in human C3A liver cell cultures treated with steroids; format: cell-based
From the text: Incyte clones represent template sequences derived from the LWESEQ GOLD assembled human sequence database (Incyte Genomics). In cases where more than one clone was available for a particular template, the 5′-most clone in the template was used on the microarray. The HUMAN GENOME GEM series 1-4 microarrays (Incyte Genomics) contain 28,626 array elements which represent 10,068 annotated clusters and 18,558 unannotated clusters. For the UNIGEM series microarrays (Incyte Genomics), Incyte clones were mapped to non-redundant Unigene clusters (Unigene database (build 46), NCBI; Shuler (1997) J Mol Med 75:694-698), and the 5′ clone with the strongest BLAST alignment (at least 90% identity and 100 bp overlap) was chosen, verified, and used in the construction of the microarray. The UNIGEM V microarray (Incyte Genomics) contains 7075 array elements which represent 4610 annotated genes and 2,184 unannotated clusters.
To construct microarrays, cDNAs were amplified from bacterial cells using primers complementary to vector sequences flanking the cDNA insert. […] Amplified cDNAs were then purified using […]-400 columns (APB). Purified cDNAs were immobilized on polymer-coated glass slides. Glass microscope slides (Corning, Corning N.Y.) were cleaned by ultrasound in 0.1% SDS and acetone, with extensive distilled water washes between and after treatments. Glass slides were etched in 4% hydrofluoric acid (VWR Scientific Products, West Chester Pa.), washed thoroughly in distilled water, and coated with 0.05% aminopropyl silane (Sigma Aldrich) in 95% ethanol. Coated slides were cured in a 110° C. oven. cDNAs were applied to the coated glass substrate using a procedure described in U.S. Pat. No. 5,807,522. One microliter of the cDNA at an average concentration of 100 ng/μl was loaded into the open capillary printing element by a high-speed robotic apparatus which then deposited about 5 nl of cDNA per slide.
Microarrays were UV-crosslinked using a […] UV-crosslinker (Stratagene), and then washed at room temperature once in 0.2% SDS and three times in distilled water. Non-specific binding sites were blocked by incubation of microarrays in 0.2% casein in phosphate buffered saline (Tropix, Bedford Mich.) for 30 minutes at 60° C. followed by washes in 0.2% SDS and distilled water as before.
In all cases, mRNA from untreated early confluent C3A cells were prepared in parallel as described below.
Cells were harvested and lysed in 1 ml of TRIZOL reagent (5×10^6 cells/ml; Life Technologies). Lysates were vortexed thoroughly, incubated at room temperature for 2-3 minutes, and extracted with 0.5 ml chloroform. The extract was mixed, incubated at room temperature for 5 minutes, and centrifuged at 15,000 rpm for 15 minutes at 4° C. The aqueous layer was collected, and an equal volume of isopropanol was added. Samples were mixed, incubated at room temperature for 10 minutes, and centrifuged at 15,000 rpm for 20 minutes at 4° C. The supernatant was removed, and the RNA pellet was washed with 1 ml of 70% ethanol, centrifuged at 15,000 rpm at 4° C., and resuspended in RNAse-free water. The concentration of the RNA was determined by measuring the optical density at 260 nm.
Poly(A) RNA was prepared using an OLIGOTEX mRNA kit (Qiagen) with the following modifications: OLIGOTEX beads were washed in tubes instead of on spin columns, resuspended in elution buffer, and then loaded onto spin columns to recover mRNA. To obtain maximum yield, the mRNA was eluted twice.
Each poly(A) RNA sample was reverse transcribed using MMLV reverse-transcriptase, 0.05 pg/μl oligo-d(T) primer (21mer), 1× first strand buffer, 0.03 units/ul RNAse inhibitor, 500 uM dATP, 500 uM dGTP, 500 uM dTTP, 40 uM dCTP, and 40 uM either dCTP-Cy3 or dCTP-Cy5 (APB).

[2] = intranasal; cited from earlier work

C[C@H]1C[C@H]2[C@@H]3CCC4=CC(=O)C=C[C@]4(C)[C@@]3(Cl)[C@@H](O)C[C@]2(C)[C@@]1(O)C(=O)CO [beclomethasone]
Ave DE [log2] (C3A treated with steroid) ([1]; Clone ID 400654): 1.06 log2
Ave DE [log2] (C3A treated with steroid) ([1]; Clone ID 517374): 0.40 log2
Ave DE [log2] (C3A treated with steroid) ([1]; Clone ID 615776): 1.01 log2
Ave DE [log2] (C3A treated with steroid) ([1]; Clone ID 654246): −0.95 log2
Ave DE [log2] (C3A treated with steroid) ([1]; Clone ID 668460): 1.23 log2
Ave DE [log2] (C3A treated with steroid) ([1]; Clone ID 963331): −1.01 log2
Ave DE [log2] (C3A treated with steroid) ([1]; Clone ID 1275616): 0.94 log2
Ave DE [log2] (C3A treated with steroid) ([1]; Clone ID 1323616): 1.09 log2
Ave DE [log2] (C3A treated with steroid) ([1]; Clone ID 1329625): 0.35 log2
Ave DE [log2] (C3A treated with steroid) ([1]; Clone ID 1573840): 0.97 log2
Ave DE [log2] (C3A treated with steroid) ([1]; Clone ID 1604437): 0.47 log2
Ave DE [log2] (C3A treated with steroid) ([1]; Clone ID 1662870): −0.76 log2
Ave DE [log2] (C3A treated with steroid) ([1]; Clone ID 1697719): −0.69 log2
Ave DE [log2] (C3A treated with steroid) ([1]; Clone ID 1723834): 0.47 log2
Ave DE [log2] (C3A treated with steroid) ([1]; Clone ID 1857044): 0.61 log2
Ave DE [log2] (C3A treated with steroid) ([1]; Clone ID 1876829): −1.00 log2
Ave DE [log2] (C3A treated with steroid) ([1]; Clone ID 1951845): 1.01 log2
Ave DE [log2] (C3A treated with steroid) ([1]; Clone ID 1995520): 0.82 log2
Ave DE [log2] (C3A treated with steroid) ([1]; Clone ID 2046717): 0.98 log2
Ave DE [log2] (C3A treated with steroid) ([1]; Clone ID 2086783): −0.88 log2
Ave DE [log2] (C3A treated with steroid) ([1]; Clone ID 2095329): −0.99 log2
Ave DE [log2] (C3A treated with steroid) ([1]; Clone ID 2285181): −0.88 log2
Ave DE [log2] (C3A treated with steroid) ([1]; Clone ID 2287703): −0.99 log2
Ave DE [log2] (C3A treated with steroid) ([1]; Clone ID 2287724): −1.05 log2
Ave DE [log2] (C3A treated with steroid) ([1]; Clone ID 2294968): −0.73 log2
Ave DE [log2] (C3A treated with steroid) ([1]; Clone ID 2372040): −1.05 log2
Ave DE [log2] (C3A treated with steroid) ([1]; Clone ID 2430165): 1.04 log2
Ave DE [log2] (C3A treated with steroid) ([1]; Clone ID 2506425): 0.88 log2
Ave DE [log2] (C3A treated with steroid) ([1]; Clone ID 2636759): 0.81 log2
Ave DE [log2] (C3A treated with steroid) ([1]; Clone ID 2695371): 0.51 log2
Ave DE [log2] (C3A treated with steroid) ([1]; Clone ID 2947188): −1.02 log2
Ave DE [log2] (C3A treated with steroid) ([1]; Clone ID 3047143): 1.10 log2
Ave DE [log2] (C3A treated with steroid) ([1]; Clone ID 3057272): 0.83 log2
Ave DE [log2] (C3A treated with steroid) ([1]; Clone ID 3528232): 0.38 log2
Ave DE [log2] (C3A treated with steroid) ([1]; Clone ID 3687607): 1.03 log2
Ave DE [log2] (C3A treated with steroid) ([1]; Clone ID 3960194): 1.00 log2
Ave DE [log2] (C3A treated with steroid) ([1]; Clone ID 3973687): 1.23 log2
Ave DE [log2] (C3A treated with steroid) ([1]; Clone ID 3973887): −0.91 log2
Ave DE [log2] (C3A treated with steroid) ([1]; Clone ID 4087621): 0.89 log2
Ave DE [log2] (C3A treated with steroid) ([1]; Clone ID 4215034): 1.13 log2
Ave DE [log2] (C3A treated with steroid) ([1]; Clone ID 4253663): −0.70 log2
Ave DE [log2] (C3A treated with steroid) ([1]; Clone ID 4284270): −0.70 log2
Ave DE [log2] (C3A treated with steroid) ([1]; Clone ID 4855265): 1.00 log2
Ave DE [log2] (C3A treated with steroid) ([1]; Clone ID 4863677): 1.09 log2
Ave DE [log2] (C3A treated with steroid) ([1]; Clone ID 4894508): −0.93 log2
Ave DE [log2] (C3A treated with steroid) ([1]; Clone ID 5091002): −1.13 log2
anti-inflammatory and vasoconstrictive effects relative to hydrocortisone [2]: 5000 times greater
